From patent US9708314B2, “Heterocyclic amide compound” (NISSAN CHEMICAL INDUSTRIES, LTD., priority 2013, dated 2017) come the findings set out here.

Each structure is given as a SMILES string.

Assay type in all cases: in vivo
Data set [1] concerns Echinochloa oryzacola Vasing. As to the kind of experiment: Test Example 2: herbicidal activity, application during weed generation in submerged conditions. The following applies: Eighteenth Table; application herbicide amount 320 g/ha. Put shortly: (§1)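 Alluvial soil in Wagner pots flooded to 4 cm water depth; seeds sown mixed, grown in greenhouse at 25–30 °C. At one- to two-leaf stage, emulsion diluted with water to the set rate (g/ha) was applied to the water surface. Effect scored 0–5 by herbicidal ratio three weeks later.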

In data set [2] the test system is Scirpus juncoides. The data set is described as above. The following applies: Eighteenth Table; application herbicide amount 320 g/ha. Put shortly: as §1
Data set [3] concerns Monochoria vaginalis. The data set is described as above. The following applies: Eighteenth Table; application herbicide amount 320 g/ha. Put shortly:
as §1

Data set [4] has as its system transplanted Oryza sativa. The data set is described as follows: Test Example 1: effect on crop, application before weed generation in submerged conditions. The following applies: Application herbicide amount 320 g/ha; Seventeenth Table. In outline:
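Alluvial soil in Wagner pots flooded to 4 cm water depth; weed seeds sown and 2.5 leaf stage rice seedlings transplanted. Emulsion diluted in water applied to water surface on sowing day at stated g/ha. Greenhouse 25° C. to 30° C.; effects scored 0–5 by herbicidal ratio after three weeks.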

Data set [5] deals with directly sowed Oryza sativa. As to the kind of experiment: Test Example 4: effect on crop by application to foliage (diluvial soil, plastic box). The following applies: for b (directly sowed Oryza sativa) effect on crop grade / d: Application herbicide amount 320 g/ha; for b (directly sowed Oryza sativa) effect on crop grade: foliage application; for d: effect on crop. In outline: (§2)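 Scores run from 0 (herbicidal ratio ≤5%) to 5 (≥90%, almost fully withered) and were assessed three weeks after foliar spraying. Seedlings had been raised for 14 days at 25-30° C in sterilized diluvial soil before treatment, with the emulsion diluted in water to the stated g/ha dose.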

The subject of data set [6] is Triticum aestivum. The data set is described as above. The following applies: for e (Triticum aestivum) effect on crop grade / e: Application herbicide amount 320 g/ha; for e (Triticum aestivum) effect on crop grade: foliage application; for e: effect on crop. In outline: as §2
Data set [7] has as its system Zea mays. Described as above. The following applies: for c (Zea mays) effect on crop grade / b: Application herbicide amount 320 g/ha; for c (Zea mays) effect on crop grade: foliage application; for b: effect on crop. In outline: as §2
In data set [8] the test system is Brassica campestris L. The data set is described as above. The following applies: for g (Brassica campestris L.) effect on crop grade / g: Application herbicide amount 320 g/ha; for g (Brassica campestris L.) effect on crop grade: foliage application; for g: effect on crop. Put shortly: as §2
Data set [9] has as its system Beta vulgaris ssp. vulgaris. The data set is described as above. The following applies: for f (Beta vulgaris ssp. vulgaris) effect on crop grade / f: Application herbicide amount 320 g/ha; for f (Beta vulgaris ssp. vulgaris) effect on crop grade: foliage application; for f: effect on crop. Put shortly:
as §2

Setting [10] is: application to foliage, application herbicide amount 320 g/ha.

As for `COc1ccc(-c2nnc3c(C(=O)Nc4nnnn4C)ccc(C(F)(F)F)n23)cc1` [2-011], the “A (Echinochloa oryzicola Vasing.) herbicidal ratio grade” value in [1] was 4 (Herbicidal ratio of 70% or more and less than 90%). The “B (Scirpus juncoides) herbicidal ratio grade” value in data set [2] was 3 (Herbicidal ratio of 40% or more and less than 70%). In addition, the “C (Monochoria vaginalis) herbicidal ratio grade” value in data set [3] is 4 (Herbicidal ratio of 70% or more and less than 90%). The “a: transplanted Oryza sativa (effect on crop grade)” value (“a: transplanted Oryza sativa” for short) in [4] is 2 (Herbicidal ratio of 20% or more and less than 40%). Also, the “b: effect on crop, directly sowed Oryza sativa” value in [5] (setting [10]) was 5 (Herbicidal ratio of 90% or more (almost completely withered)). The “e: effect on crop, Triticum aestivum” value in data set [6] (setting [10]) is 1 (Herbicidal ratio of 5% or more and less than 20%). The “c: effect on crop, Zea mays” value in data set [7] (setting [10]) is 1 (Herbicidal ratio of 5% or more and less than 20%). Also, the “g: effect on crop, Brassica campestris L.” value in data set [8] (setting [10]) is 1 (Herbicidal ratio of 5% or more and less than 20%). Moreover, in [9] (setting [10]), the “f: effect on crop, Beta vulgaris ssp. vulgaris” value is listed as 5 (Herbicidal ratio of 90% or more (almost completely withered)).

With `CCOc1nnc2c(C(=O)Nc3nnco3)ccc(C(F)(F)F)n12` [1-112], the “A (Echinochloa oryzicola Vasing.) herbicidal ratio grade” value in [1] is 1 (Herbicidal ratio of 5% or more and less than 20%). Besides, the “B (Scirpus juncoides) herbicidal ratio grade” value in [2] was 2 (Herbicidal ratio of 20% or more and less than 40%). The “C (Monochoria vaginalis) herbicidal ratio grade” value in [3] is listed as 0 (Herbicidal ratio of 5% or less (almost no effect)). In addition, in data set [4], the “a: transplanted Oryza sativa” value is recorded as 0 (Herbicidal ratio of 5% or less (almost no effect)). For the same compound, the “b (directly sowed Oryza sativa) effect on crop grade” value in [5] is reported as 0 (Herbicidal ratio of 5% or less (almost no effect)). For the same compound, in [6], the “e (Triticum aestivum) effect on crop grade” value (shortened to “e (Triticum aestivum) effect”) is 0 (Herbicidal ratio of 5% or less (almost no effect)). Further, in data set [7], the “c (Zea mays) effect on crop grade” value is on record as 0 (Herbicidal ratio of 5% or less (almost no effect)). The “g (Brassica campestris L.) effect on crop grade” value in data set [8] is 3 (Herbicidal ratio of 40% or more and less than 70%). In addition, the “f (Beta vulgaris ssp. vulgaris) effect on crop grade” value in data set [9] is recorded as 5 (Herbicidal ratio of 90% or more (almost completely withered)).

Turning to `COCCOCc1nnc2c(C(=O)Nc3nnco3)ccc(C(F)(F)F)n12` [1-107], in data set [1], the “A (Echinochloa oryzicola Vasing.) herbicidal ratio grade” value is 5 (Herbicidal ratio of 90% or more (almost completely withered)). The “B (Scirpus juncoides) herbicidal ratio grade” value in data set [2] is 4 (Herbicidal ratio of 70% or more and less than 90%). The “C (Monochoria vaginalis) herbicidal ratio grade” value in data set [3] is 4 (Herbicidal ratio of 70% or more and less than 90%). For the same compound, the “a: transplanted Oryza sativa” value in [4] is 2 (Herbicidal ratio of 20% or more and less than 40%). Besides, in [5], the “b (directly sowed Oryza sativa) effect on crop grade” value was 4 (Herbicidal ratio of 70% or more and less than 90%). Also, in data set [6], the “e (Triticum aestivum) effect” value is 3 (Herbicidal ratio of 40% or more and less than 70%). Further, the “c (Zea mays) effect on crop grade” value in data set [7] was 1 (Herbicidal ratio of 5% or more and less than 20%). Moreover, the “g (Brassica campestris L.) effect on crop grade” value in [8] is recorded as 5 (Herbicidal ratio of 90% or more (almost completely withered)). In data set [9], the “f (Beta vulgaris ssp. vulgaris) effect on crop grade” value is 5 (Herbicidal ratio of 90% or more (almost completely withered)).

As for `C#CCN(C)c1nnc2c(C(=O)Nc3nnc(C)o3)ccc(C(F)(F)F)n12` [1-152], in data set [1], the “A (Echinochloa oryzicola Vasing.) herbicidal ratio grade” value is 3 (Herbicidal ratio of 40% or more and less than 70%). Also, the “B (Scirpus juncoides) herbicidal ratio grade” value in data set [2] is 3 (Herbicidal ratio of 40% or more and less than 70%). Besides, the “C (Monochoria vaginalis) herbicidal ratio grade” value in data set [3] was 3 (Herbicidal ratio of 40% or more and less than 70%). Besides, the “a: transplanted Oryza sativa” value in data set [4] is 2 (Herbicidal ratio of 20% or more and less than 40%). Moreover, in [5], the “b (directly sowed Oryza sativa) effect on crop grade” value is given as 0 (Herbicidal ratio of 5% or less (almost no effect)). Besides, the “e (Triticum aestivum) effect” value in data set [6] is 0 (Herbicidal ratio of 5% or less (almost no effect)). Further, the “c (Zea mays) effect on crop grade” value in data set [7] was 0 (Herbicidal ratio of 5% or less (almost no effect)). Also, the “g (Brassica campestris L.) effect on crop grade” value in [8] was 1 (Herbicidal ratio of 5% or more and less than 20%). For the same compound, the “f (Beta vulgaris ssp. vulgaris) effect on crop grade” value in [9] is 4 (Herbicidal ratio of 70% or more and less than 90%).

Regarding `Cc1nnc(NC(=O)c2ccc(C(F)(F)F)n3c(CC4CC4)nnc23)o1` [1-104], the “A (Echinochloa oryzicola Vasing.) herbicidal ratio grade” value in data set [1] was 4 (Herbicidal ratio of 70% or more and less than 90%). Also, the “B (Scirpus juncoides) herbicidal ratio grade” value in data set [2] was 3 (Herbicidal ratio of 40% or more and less than 70%). The “C (Monochoria vaginalis) herbicidal ratio grade” value in data set [3] is 3 (Herbicidal ratio of 40% or more and less than 70%). In addition, the “a: transplanted Oryza sativa” value in data set [4] is on record as 0 (Herbicidal ratio of 5% or less (almost no effect)). Also, the d in data set [5] was 4 (Herbicidal ratio of 70% or more and less than 90%). Also, the e in [6] is 2 (Herbicidal ratio of 20% or more and less than 40%). Further, the b in [7] is 0 (Herbicidal ratio of 5% or less (almost no effect)). The g in [8] is 4 (Herbicidal ratio of 70% or more and less than 90%). Also, the f in data set [9] was 4 (Herbicidal ratio of 70% or more and less than 90%).

On to `CC(=O)OCc1nnc2c(C(=O)Nc3nnc(C)o3)ccc(C(F)(F)F)n12` [1-062], for which the “A (Echinochloa oryzicola Vasing.) herbicidal ratio grade” value in data set [1] was 2 (Herbicidal ratio of 20% or more and less than 40%). The “B (Scirpus juncoides) herbicidal ratio grade” value in [2] was 2 (Herbicidal ratio of 20% or more and less than 40%). Also, the “C (Monochoria vaginalis) herbicidal ratio grade” value in [3] is 2 (Herbicidal ratio of 20% or more and less than 40%). The “a: transplanted Oryza sativa” value in data set [4] is 0 (Herbicidal ratio of 5% or less (almost no effect)). In addition, the d in data set [5] is 3 (Herbicidal ratio of 40% or more and less than 70%). Further, in data set [6], the e is 2 (Herbicidal ratio of 20% or more and less than 40%). Besides, the b in data set [7] is 3 (Herbicidal ratio of 40% or more and less than 70%). For the same compound, the g in data set [8] is 4 (Herbicidal ratio of 70% or more and less than 90%). Further, the f in [9] is 4 (Herbicidal ratio of 70% or more and less than 90%).

With `CCN(C)c1nnc2c(C(=O)Nc3nnco3)ccc(C(F)(F)F)n12` [1-137], in [1], the “A (Echinochloa oryzicola Vasing.) herbicidal ratio grade” value was 3 (Herbicidal ratio of 40% or more and less than 70%). Moreover, the “B (Scirpus juncoides) herbicidal ratio grade” value in data set [2] was 3 (Herbicidal ratio of 40% or more and less than 70%). The “C (Monochoria vaginalis) herbicidal ratio grade” value in data set [3] was 3 (Herbicidal ratio of 40% or more and less than 70%). Further, the “a: transplanted Oryza sativa” value in [4] was 3 (Herbicidal ratio of 40% or more and less than 70%). In data set [6], the “e (Triticum aestivum) effect” value was 2 (Herbicidal ratio of 20% or more and less than 40%). For the same compound, the “c (Zea mays) effect on crop grade” value in data set [7] is listed as 0 (Herbicidal ratio of 5% or less (almost no effect)). Besides, in [8], the “g (Brassica campestris L.) effect on crop grade” value is on record as 5 (Herbicidal ratio of 90% or more (almost completely withered)). Besides, the “f (Beta vulgaris ssp. vulgaris) effect on crop grade” value in [9] is 5 (Herbicidal ratio of 90% or more (almost completely withered)).
